According to patent US20220281848A1, “PYRAZOLE-SUBSTITUTED PYRROLIDINONES AS HERBICIDES” (FMC Corporation, priority 2019, published 2022):

Experiments:
Type in all cases: in vivo
[1] = system: velvetleaf (Abutilon theophrasti, ABUTH); assay: Test A post-emergence, velvetleaf; conditions: after 13 d
Summary of the method: (§1)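 Visual damage rating (0 no damage to 100 total damage) was made 13 d after spraying. The spray was 15.625, 62.5 or 250 g/ha in 50:50 acetone/water with 0.5% Tween 20, applied to 8-day-old glasshouse plants kept at 24/16° C, 14 h light and 65% humidity.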

[2] = system: ivy-leaved morning glory (Ipomoea hederacea, IPOHE); assay: Test A pre-emergence, ivy-leaved morning glory; conditions: after 13 d
Summary of the method: (§2)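 After sowing in pots and a single day of glasshouse cultivation, the soil was treated with an aqueous spray of the compound (acetone/water 50:50, 0.5% Tween 20) giving 15.625, 62.5 or 250 g/ha. Evaluation after 13 d used a scale where 0 meant no damage and 100 total damage.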

[3] = system: redroot pigweed (Amaranthus retroflexus, AMARE); assay: Test A pre-emergence, redroot pigweed; conditions: after 13 d
Summary of the method: as §2

plants = assay: Test D post-emergence, other plants of Tables D2 and D4; conditions: for damage to plant (100=total damage to plant; 0=no damage to plant), ABUTH / damage to plant (100=total damage to plant; 0=no damage to plant), AMARE / damage to plant (100=total damage to plant; 0=no damage to plant), BIDPI / damage to plant (100=total damage to plant; 0=no damage to plant), BRAPL / damage to plant (100=total damage to plant; 0=no damage to plant), CYPES / damage to plant (100=total damage to plant; 0=no damage to plant), DIGSA / damage to plant (100=total damage to plant; 0=no damage to plant), ECHCG / damage to plant (100=total damage to plant; 0=no damage to plant), ELEIN / damage to plant (100=total damage to plant; 0=no damage to plant), EPHHL / damage to plant (100=total damage to plant; 0=no damage to plant), GLXMA / damage to plant (100=total damage to plant; 0=no damage to plant), IPOHE / damage to plant (100=total damage to plant; 0=no damage to plant), ORYSA / damage to plant (100=total damage to plant; 0=no damage to plant), PANMI / damage to plant (100=total damage to plant; 0=no damage to plant), SETFA / damage to plant (100=total damage to plant; 0=no damage to plant), SORVU: post-emergence
Summary of the method: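 Seeds treated with herbicide safener; sown in soil; glasshouse, 16 h light, 65% humidity. Sprayed day 1 (pre) or ~day 12 (post). Spray in 0.2% v/v adjuvant. Scored 0–100 damage: 20 DAA pre, 15 d post.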

[4] = system: redroot pigweed (Amaranthus retroflexus, AMARE); assay: Test A post-emergence, redroot pigweed; conditions: after 13 d
Summary of the method: as §1

[5] = "Cereals" Postemergent, Rates 130, evaluated after 15 d
[6] = "Cereals" Postemergent, Rates 250, evaluated after 15 d
[7] = "Cereals" Postemergent, Rates 500, evaluated after 15 d

COc1c(F)cccc1NC(=O)C1C(=O)N(C)CC1c1cc(C(F)(F)F)n(C)n1 (racemic) [Compound 18]
20: damage to plant (100=total damage; 0=no damage) IPOHE ([2]; Pre-Emergence at 250 g/ha) | AVEFA damage rating (100=total damage to plant; 0=no damage to plant) (plants; [6]) | BRSNN damage rating (100=total damage to plant; 0=no damage to plant) (plants; [7]) | CHEAL damage rating (100=total damage to plant; 0=no damage to plant) (plants; [7]) | STEME damage rating (100=total damage to plant; 0=no damage to plant) (plants; [7]) | damage to plant (100=total damage to plant; 0=no damage to plant), AMARE (plants; rate 500, evaluated after 15 d) | damage to plant (100=total damage to plant; 0=no damage to plant), BIDPI (plants; rate 500, evaluated after 15 d) | damage to plant (100=total damage to plant; 0=no damage to plant), EPHHL (plants; rate 500, evaluated after 15 d) | damage to plant (100=total damage to plant; 0=no damage to plant), IPOHE (plants; rate 250, evaluated after 15 d)
50: HORVW damage rating (100=total damage to plant; 0=no damage to plant) (plants; [7]) | POAAN damage rating (100=total damage to plant; 0=no damage to plant) (plants; [6])
30: ALOMY damage rating (100=total damage to plant; 0=no damage to plant) (plants; [6]) | HORVW damage rating (100=total damage to plant; 0=no damage to plant) (plants; [6]) | damage to plant (100=total damage to plant; 0=no damage to plant), ABUTH (plants; rate 500, evaluated after 15 d) | damage to plant (100=total damage to plant; 0=no damage to plant), DIGSA (plants; rate 130, evaluated after 15 d) | damage to plant (100=total damage to plant; 0=no damage to plant), IPOHE (plants; rate 500, evaluated after 15 d) | damage to plant (100=total damage to plant; 0=no damage to plant), SETFA (plants; rate 250, evaluated after 15 d)
40: ALOMY damage rating (100=total damage to plant; 0=no damage to plant) (plants; [7]) | AVEFA damage rating (100=total damage to plant; 0=no damage to plant) (plants; [7]) | GALAP damage rating (100=total damage to plant; 0=no damage to plant) (plants; [7]) | SINAR damage rating (100=total damage to plant; 0=no damage to plant) (plants; SINAR, "Cereals" Postemergent, Rates 500, evaluated after 15 d) | VERPE damage rating (100=total damage to plant; 0=no damage to plant) (plants; [7])
70: POAAN damage rating (100=total damage to plant; 0=no damage to plant) (plants; [7]) | damage to plant (100=total damage to plant; 0=no damage to plant), BRAPL (plants; rate 250, evaluated after 15 d) | damage to plant (100=total damage to plant; 0=no damage to plant), DIGSA (plants; rate 500, evaluated after 15 d) | damage to plant (100=total damage to plant; 0=no damage to plant), ECHCG (plants; rate 500, evaluated after 15 d) | damage to plant (100=total damage to plant; 0=no damage to plant), SETFA (plants; rate 500, evaluated after 15 d)
0: damage to plant (100=total damage; 0=no damage) ABUTH ([1]; Post-Emergence at 15.625 g/ha) | damage to plant (100=total damage; 0=no damage) ABUTH ([1]; Post-Emergence at 62.5 g/ha) | damage to plant (100=total damage; 0=no damage) ABUTH ([1]; Post-Emergence at 250 g/ha) | damage to plant (100=total damage; 0=no damage) AMARE ([3]; Pre-Emergence at 15.625 g/ha) | damage to plant (100=total damage; 0=no damage) AMARE ([3]; Pre-Emergence at 62.5 g/ha) | damage to plant (100=total damage; 0=no damage) AMARE ([3]; Pre-Emergence at 250 g/ha) | AVEFA damage rating (100=total damage to plant; 0=no damage to plant) (plants; [5]) | BEAVA damage rating (100=total damage to plant; 0=no damage to plant) (plants; [5]) | BEAVA damage rating (100=total damage to plant; 0=no damage to plant) (plants; [6]) | BEAVA damage rating (100=total damage to plant; 0=no damage to plant) (plants; [7]) | BROTE damage rating (100=total damage to plant; 0=no damage to plant) (plants; [5]) | BROTE damage rating (100=total damage to plant; 0=no damage to plant) (plants; [6]) | BROTE damage rating (100=total damage to plant; 0=no damage to plant) (plants; [7]) | CHEAL damage rating (100=total damage to plant; 0=no damage to plant) (plants; [5]) | CHEAL damage rating (100=total damage to plant; 0=no damage to plant) (plants; [6]) | GALAP damage rating (100=total damage to plant; 0=no damage to plant) (plants; [5]) | GALAP damage rating (100=total damage to plant; 0=no damage to plant) (plants; [6]) | HORVW damage rating (100=total damage to plant; 0=no damage to plant) (plants; [5]) | KCHSC damage rating (100=total damage to plant; 0=no damage to plant) (plants; [5]) | KCHSC damage rating (100=total damage to plant; 0=no damage to plant) (plants; [6]) | KCHSC damage rating (100=total damage to plant; 0=no damage to plant) (plants; [7]) | LOLPE damage rating (100=total damage to plant; 0=no damage to plant) (plants; [5]) | LOLPE damage rating (100=total damage to plant; 0=no damage to plant) (plants; [6]) | POAAN damage rating (100=total damage to plant; 0=no damage to plant) (plants; [5]) | POLCO damage rating (100=total damage to plant; 0=no damage to plant) (plants; [5]) | POLCO damage rating (100=total damage to plant; 0=no damage to plant) (plants; [6]) | POLCO damage rating (100=total damage to plant; 0=no damage to plant) (plants; [7]) | STEME damage rating (100=total damage to plant; 0=no damage to plant) (plants; [5]) | STEME damage rating (100=total damage to plant; 0=no damage to plant) (plants; [6]) | VERPE damage rating (100=total damage to plant; 0=no damage to plant) (plants; [5]) | VERPE damage rating (100=total damage to plant; 0=no damage to plant) (plants; [6]) | damage to plant (100=total damage to plant; 0=no damage to plant), ABUTH (plants; rate 130, evaluated after 15 d) | damage to plant (100=total damage to plant; 0=no damage to plant), ABUTH (plants; rate 250, evaluated after 15 d) | damage to plant (100=total damage to plant; 0=no damage to plant), AMARE (plants; rate 130, evaluated after 15 d) | damage to plant (100=total damage to plant; 0=no damage to plant), BIDPI (plants; rate 130, evaluated after 15 d) | damage to plant (100=total damage to plant; 0=no damage to plant), BIDPI (plants; rate 250, evaluated after 15 d) | damage to plant (100=total damage to plant; 0=no damage to plant), CYPES (plants; rate 130, evaluated after 15 d) | damage to plant (100=total damage to plant; 0=no damage to plant), CYPES (plants; rate 250, evaluated after 15 d) | damage to plant (100=total damage to plant; 0=no damage to plant), CYPES (plants; rate 500, evaluated after 15 d) | damage to plant (100=total damage to plant; 0=no damage to plant), ECHCG (plants; rate 130, evaluated after 15 d) | damage to plant (100=total damage to plant; 0=no damage to plant), ELEIN (plants; rate 130, evaluated after 15 d) | damage to plant (100=total damage to plant; 0=no damage to plant), ELEIN (plants; rate 250, evaluated after 15 d) | damage to plant (100=total damage to plant; 0=no damage to plant), ELEIN (plants; rate 500, evaluated after 15 d) | damage to plant (100=total damage to plant; 0=no damage to plant), EPHHL (plants; rate 130, evaluated after 15 d) | damage to plant (100=total damage to plant; 0=no damage to plant), GLXMA (plants; rate 130, evaluated after 15 d) | damage to plant (100=total damage to plant; 0=no damage to plant), GLXMA (plants; rate 250, evaluated after 15 d) | damage to plant (100=total damage to plant; 0=no damage to plant), GLXMA (plants; rate 500, evaluated after 15 d) | damage to plant (100=total damage to plant; 0=no damage to plant), IPOHE (plants; rate 130, evaluated after 15 d) | damage to plant (100=total damage to plant; 0=no damage to plant), ORYSA (plants; rate 130, evaluated after 15 d) | damage to plant (100=total damage to plant; 0=no damage to plant), ORYSA (plants; rate 250, evaluated after 15 d) | damage to plant (100=total damage to plant; 0=no damage to plant), ORYSA (plants; rate 500, evaluated after 15 d) | damage to plant (100=total damage to plant; 0=no damage to plant), PANMI (plants; rate 130, evaluated after 15 d) | damage to plant (100=total damage to plant; 0=no damage to plant), SETFA (plants; rate 130, evaluated after 15 d) | damage to plant (100=total damage to plant; 0=no damage to plant), SORVU (plants; rate 130, evaluated after 15 d) | damage to plant (100=total damage to plant; 0=no damage to plant), SORVU (plants; rate 250, evaluated after 15 d) | damage to plant (100=total damage to plant; 0=no damage to plant), SORVU (plants; rate 500, evaluated after 15 d) | damage to plant (100=total damage; 0=no damage) AMARE ([4]; Post-Emergence at 15.625 g/ha) | damage to plant (100=total damage; 0=no damage) AMARE ([4]; Post-Emergence at 62.5 g/ha) | damage to plant (100=total damage; 0=no damage) AMARE ([4]; Post-Emergence at 250 g/ha)
60: damage to plant (100=total damage to plant; 0=no damage to plant), BRAPL (plants; rate 130, evaluated after 15 d) | damage to plant (100=total damage to plant; 0=no damage to plant), DIGSA (plants; rate 250, evaluated after 15 d) | damage to plant (100=total damage to plant; 0=no damage to plant), ECHCG (plants; rate 250, evaluated after 15 d)
80: damage to plant (100=total damage to plant; 0=no damage to plant), BRAPL (plants; rate 500, evaluated after 15 d)
10: damage to plant (100=total damage; 0=no damage) IPOHE ([2]; Pre-Emergence at 15.625 g/ha) | damage to plant (100=total damage; 0=no damage) IPOHE ([2]; Pre-Emergence at 62.5 g/ha) | ALOMY damage rating (100=total damage to plant; 0=no damage to plant) (plants; [5]) | BRSNN damage rating (100=total damage to plant; 0=no damage to plant) (plants; [5]) | BRSNN damage rating (100=total damage to plant; 0=no damage to plant) (plants; [6]) | LOLPE damage rating (100=total damage to plant; 0=no damage to plant) (plants; [7]) | damage to plant (100=total damage to plant; 0=no damage to plant), AMARE (plants; rate 250, evaluated after 15 d) | damage to plant (100=total damage to plant; 0=no damage to plant), EPHHL (plants; rate 250, evaluated after 15 d) | damage to plant (100=total damage to plant; 0=no damage to plant), PANMI (plants; rate 250, evaluated after 15 d) | damage to plant (100=total damage to plant; 0=no damage to plant), PANMI (plants; rate 500, evaluated after 15 d)
